The source of these data is ChEMBL document CHEMBL2331317, “Synthesis and structure-activity relationships for 1-(4-(piperidin-1-ylsulfonyl)phenyl)pyrrolidin-2-ones as novel non-carboxylate inhibitors of the aldo-keto reductase enzyme AKR1C3” (Eur J Med Chem, 2013).

The structures appear in SMILES notation. Where a chain is given by its changes, count along the chain named. Calls of active or inactive are those of the source. No cut-off for these calls is given here.

As a reminder, the IC50 is the concentration at which inhibition is half-maximal.

The target of assay [1] is T1, Aldo-keto reductase family 1 member C2 (Homo sapiens, UniProt P52895).
T1 sequence (P52895 whole entry): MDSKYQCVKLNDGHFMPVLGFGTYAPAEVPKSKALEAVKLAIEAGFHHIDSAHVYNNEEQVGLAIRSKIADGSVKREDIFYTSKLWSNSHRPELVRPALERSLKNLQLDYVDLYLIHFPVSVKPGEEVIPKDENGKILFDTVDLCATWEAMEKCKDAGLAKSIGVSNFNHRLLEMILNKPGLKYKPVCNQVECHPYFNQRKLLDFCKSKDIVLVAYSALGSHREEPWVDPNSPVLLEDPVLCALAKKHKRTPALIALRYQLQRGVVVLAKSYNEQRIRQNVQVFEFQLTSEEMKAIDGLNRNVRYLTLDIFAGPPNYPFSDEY
As to the kind of experiment: Inhibition of His-tagged human AKR1C2 expressed in Escherichia coli BL21 (DE3) assessed as inhibition of reduction of non-fluorescent ketone probe to fluorescent alcohol after 1 hr by competitive fluorescence assay.

Assay [2] has as its target T2, Aldo-keto reductase family 1 member C1 (Homo sapiens, UniProt Q04828).
T2 sequence (Q04828 whole entry): T1 sequence (P52895 whole entry) with V38T, H47R, V54L, S87C, M151V, H170R, L172Q
As to the kind of experiment: Inhibition of His-tagged human AKR1C1 expressed in Escherichia coli BL21 (DE3) assessed as inhibition of reduction of non-fluorescent ketone probe to fluorescent alcohol after 1 hr by competitive fluorescence assay.

In assay [3] the target is T3, Aldo-keto reductase family 1 member C4 (Homo sapiens, UniProt P17516).
T3 sequence (P17516 whole entry): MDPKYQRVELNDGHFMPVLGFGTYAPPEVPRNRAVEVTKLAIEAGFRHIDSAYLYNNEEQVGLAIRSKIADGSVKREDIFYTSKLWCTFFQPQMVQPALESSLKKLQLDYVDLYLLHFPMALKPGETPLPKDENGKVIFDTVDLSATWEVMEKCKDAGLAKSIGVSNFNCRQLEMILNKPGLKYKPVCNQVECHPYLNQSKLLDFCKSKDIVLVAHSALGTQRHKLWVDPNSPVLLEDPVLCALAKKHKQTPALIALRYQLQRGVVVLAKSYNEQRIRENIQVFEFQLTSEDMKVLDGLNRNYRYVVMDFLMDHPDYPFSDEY
Briefly: Inhibition of His-tagged human AKR1C4 expressed in Escherichia coli BL21 (DE3) assessed as inhibition of reduction of non-fluorescent ketone probe to fluorescent alcohol after 1 hr by competitive fluorescence assay.

The target of assay [4] is T4, Prostaglandin G/H synthase 1 (Homo sapiens, UniProt P23219). As to the kind of experiment: Inhibition of COX1 (unknown origin).
The target in assay [5] is T2, Aldo-keto reductase family 1 member C1. As to the kind of experiment: Inhibition of AKR1C1 (unknown origin).
Assay [6] deals with T3, Aldo-keto reductase family 1 member C4. Briefly: Inhibition of AKR1C4 (unknown origin).
The target in assay [7] is T5, Prostaglandin G/H synthase 2 (Homo sapiens, UniProt P35354).
T5 sequence (P35354 whole entry): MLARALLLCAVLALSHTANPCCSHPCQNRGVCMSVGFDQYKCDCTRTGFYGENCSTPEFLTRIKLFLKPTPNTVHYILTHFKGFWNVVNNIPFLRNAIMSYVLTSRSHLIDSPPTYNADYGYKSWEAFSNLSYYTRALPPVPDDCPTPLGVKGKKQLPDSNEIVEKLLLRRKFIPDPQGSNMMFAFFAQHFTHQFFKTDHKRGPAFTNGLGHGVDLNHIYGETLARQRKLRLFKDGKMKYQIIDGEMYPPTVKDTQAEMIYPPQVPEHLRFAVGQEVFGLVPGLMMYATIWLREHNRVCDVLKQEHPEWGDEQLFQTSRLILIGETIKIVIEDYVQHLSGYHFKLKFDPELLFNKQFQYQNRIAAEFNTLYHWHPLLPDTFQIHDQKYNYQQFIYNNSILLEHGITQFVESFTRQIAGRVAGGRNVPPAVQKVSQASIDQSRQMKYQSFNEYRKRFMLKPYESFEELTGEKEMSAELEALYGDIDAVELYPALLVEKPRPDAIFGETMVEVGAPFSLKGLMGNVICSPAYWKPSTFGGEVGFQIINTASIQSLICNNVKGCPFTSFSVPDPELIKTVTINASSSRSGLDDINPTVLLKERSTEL
As to the kind of experiment: Inhibition of COX2 (unknown origin).

Assay [8] concerns the target T6, Aldo-keto reductase family 1 member C3 (Homo sapiens, UniProt P42330).
T6 sequence (P42330 whole entry): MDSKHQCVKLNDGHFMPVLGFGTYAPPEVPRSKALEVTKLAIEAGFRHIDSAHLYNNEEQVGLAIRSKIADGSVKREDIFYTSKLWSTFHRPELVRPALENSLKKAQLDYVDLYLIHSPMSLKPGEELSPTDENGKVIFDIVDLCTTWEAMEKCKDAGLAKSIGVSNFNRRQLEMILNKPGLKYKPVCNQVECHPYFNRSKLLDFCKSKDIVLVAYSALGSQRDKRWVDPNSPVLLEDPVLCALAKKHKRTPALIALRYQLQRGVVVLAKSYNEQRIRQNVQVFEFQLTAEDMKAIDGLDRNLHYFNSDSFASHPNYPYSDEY
As to the kind of experiment: Inhibition of His-tagged human AKR1C3 expressed in Escherichia coli BL21 (DE3) assessed as inhibition of reduction of non-fluorescent ketone probe to fluorescent alcohol after 1 hr by competitive fluorescence assay.

Assay [9] deals with T7, Prostaglandin G/H synthase 2 (Homo sapiens) (UniProt P35354).
T7 sequence (whole entry): T5 sequence (P35354 whole entry)
Briefly: Inhibition of COX2 (unknown origin) at 10 uM.

The target in assay [10] is T4, Prostaglandin G/H synthase 1. Briefly: Inhibition of COX1 (unknown origin) at 10 uM.
Assay [11] deals with T6, Aldo-keto reductase family 1 member C3. Briefly: Inhibition of recombinant AKR1C3 (unknown origin) overexpressed in human HCT116 cells assessed as inhibition of aerobic reduction of dinitrobenzamide PR-104A to its hydroxylamine metabolite by LC-MS/MS assay. The class given is cell-based, HCT-116.

T4 sequence (P23219 whole entry): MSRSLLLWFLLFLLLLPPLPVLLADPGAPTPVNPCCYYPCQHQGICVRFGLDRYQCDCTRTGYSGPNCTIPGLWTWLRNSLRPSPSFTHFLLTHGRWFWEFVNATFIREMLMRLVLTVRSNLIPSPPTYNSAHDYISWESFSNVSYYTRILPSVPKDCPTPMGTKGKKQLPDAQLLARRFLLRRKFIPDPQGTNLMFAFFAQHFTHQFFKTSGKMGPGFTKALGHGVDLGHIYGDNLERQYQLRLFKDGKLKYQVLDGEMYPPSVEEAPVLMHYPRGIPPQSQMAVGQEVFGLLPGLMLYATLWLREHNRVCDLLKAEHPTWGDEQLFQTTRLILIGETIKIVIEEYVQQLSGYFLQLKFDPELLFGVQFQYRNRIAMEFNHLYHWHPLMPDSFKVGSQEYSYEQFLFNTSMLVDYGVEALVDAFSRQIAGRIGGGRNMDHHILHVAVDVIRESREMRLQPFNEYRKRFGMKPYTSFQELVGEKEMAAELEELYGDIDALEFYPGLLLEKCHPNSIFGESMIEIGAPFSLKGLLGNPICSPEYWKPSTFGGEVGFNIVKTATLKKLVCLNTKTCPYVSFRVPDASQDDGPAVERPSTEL

As to `C[C@@H]1CCCCN1S(=O)(=O)c1ccc(N2CCCC2=O)cc1`, the 50% inhibitory concentration (IC50) in [1], in assay [2] and in [3] was over 30 µM throughout.
As for `Cc1cccc(Nc2ccccc2C(=O)O)c1C` [MEFENAMIC ACID], the IC50 in assay [4] is 25 µM; in assay [5] it was 3.91 µM; in [6], over 100 µM; in assay [7] it was 2.9 µM.
`CC1CCCCN1S(=O)(=O)c1cccc(N2CCCC2=O)c1` (stereo unspecified): the half-inhibitory concentration (IC50) in assay [8] was over 30 µM.
As to `CC1CCCCN1S(=O)(=O)c1ccc(N2CCCCC2=O)cc1` (stereo unspecified), the 50% inhibitory concentration (IC50) in assay [1] is over 30 µM; in assay [2], over 30 µM; in assay [3] it was over 30 µM; in assay [8] it was 3.77 µM.
Consider `O=C1CCCN1c1ccc(S(=O)(=O)N2CCC[C@@H](O)C2)cc1`, for which the concentration for half-maximal inhibition (IC50) was over 30 µM in [1], over 30 µM in assay [2], over 30 µM in [3] and 1.55 µM in assay [8].
With `O=C1CCCN1c1ccc(S(=O)(=O)N2CCOCC2)cc1`, in assay [8], the IC50 is over 30 µM.
`CC1CCCCN1S(=O)(=O)c1ccc(N2CCC2=O)cc1` (stereo unspecified): the IC50 is over 30 µM in [1], over 30 µM in assay [2], over 30 µM in [3] and 5.61 µM in assay [8].
`Cc1cc(S(=O)(=O)N2CCCCC2C)c(C)cc1N1CCCC1=O` (stereo unspecified): the 50% inhibitory concentration (IC50) in assay [8] is over 30 µM.
Regarding `Cc1ccc(Cl)c(Nc2ccccc2C(=O)O)c1Cl` [MECLOFENAMIC ACID], the 50% inhibitory concentration (IC50) came to 0.22 µM in assay [4] and 0.7 µM in [7].
Take `CC1CCCCN1S(=O)(=O)c1ccccc1N1CCCC1=O` (stereo unspecified): the IC50 in assay [8] is over 30 µM.
In the case of `CC1CCCCN1S(=O)(=O)c1ccc(N2CCCC2=O)cc1` (racemic), the concentration for half-maximal inhibition (IC50) in assay [1], in assay [2] and in assay [3] was over 30 µM throughout. The inhibition entry in [9] and in [10] was “inactive” throughout.
In the case of `CC(C)C(=O)Nc1ccc(S(=O)(=O)N2CCCCC2C)cc1` (stereo unspecified), the IC50 in assay [8] stood at 12.5 µM.
On the same count and under the same terms, the value for `O=C1CCCN1c1ccc(S(=O)(=O)N2CCc3ccccc3C2)cc1` was 0.052 µM.
For the compound `O=C1CCCN1c1ccc(S(=O)(=O)N2CCC[C@H](O)C2)cc1`, the IC50 in assay [1] was over 30 µM; in assay [2], over 30 µM; in assay [3], over 30 µM; in assay [8], 8.98 µM.
For the compound `O=C1CCCN1c1ccc(S(=O)(=O)N2CCCCC2)cc1`, the concentration for half-maximal inhibition (IC50) in assay [1] is over 30 µM; in [2] it was over 30 µM; in assay [3] it was over 30 µM; in assay [8] it was 0.14 µM. The inhibition entry in assay [9] and in assay [10] was “inactive” each time.
Take `C[C@@H]1CN(S(=O)(=O)c2ccc(N3CCCC3=O)cc2)C[C@H](C)N1`: the IC50 in assay [8] worked out at 21.2 µM.
Turning to `Cc1cc(S(=O)(=O)N2CCCCC2C)ccc1N1CCCC1=O` (stereo unspecified), in assay [8], the IC50 was 10.2 µM.
Turning to `O=C1CCCN1c1ccc(S(=O)(=O)N2CCCC2)cc1`, in assay [8], the IC50 was over 30 µM.
For `CC1CCCCN1S(=O)(=O)c1ccc(N2C(=O)c3ccccc3C2=O)cc1` (stereo unspecified), the 50% inhibitory concentration (IC50) in assay [8] is over 30 µM.
With `CC1CCCCN1C(=O)c1ccc(N2CCCC2=O)cc1` (stereo unspecified), in assay [8], the IC50 is over 30 µM.
For `CC1CCN(S(=O)(=O)c2ccc(N3CCCC3=O)cc2)CC1`, the concentration for half-maximal inhibition (IC50) in [1] was over 30 µM; in assay [2] it was over 30 µM; in assay [3], over 30 µM; in assay [8], 0.2 µM.
Take `O=C(O)c1ccccc1Nc1cccc(C(F)(F)F)c1` [FLUFENAMIC ACID]: in [4], 3 µM corresponded to half-maximal inhibition (IC50).
For `CC1CCCCN1S(=O)(=O)c1ccc(NC(=O)C(C)(C)C)cc1` (stereo unspecified), the half-inhibitory concentration (IC50) in assay [1] is over 30 µM; in [2], over 30 µM; in [3] it was over 30 µM; in [8] it was 5.94 µM.
As for `CC1CCCCN1Cc1ccc(N2CCCC2=O)cc1` (stereo unspecified), the IC50 in assay [8] was over 30 µM.
In the case of `CC1CCCCN1S(=O)(=O)c1ccc(N2C(=O)CCC2=O)cc1` (stereo unspecified), the half-maximal inhibitory concentration (IC50) in [8] was over 30 µM.
As for `CC1CCCCN1S(=O)(=O)c1ccc(N2CCCC2=O)cn1` (stereo unspecified), the IC50 in assay [1] was over 30 µM; in assay [2], over 30 µM; in assay [3], over 30 µM; in assay [8] it was 2.77 µM.
As to `CC1CCCCN1S(=O)(=O)c1ccc(N2CCCS2(=O)=O)cc1` (stereo unspecified), the half-maximal inhibitory concentration (IC50) in assay [1] was over 30 µM; in assay [2] it was over 30 µM; in assay [3], over 30 µM; in assay [8], 5.22 µM.
For the compound `C[C@H]1CCC[C@H](C)N1S(=O)(=O)c1ccc(N2CCCC2=O)cc1`, the IC50 was over 30 µM in assay [1]; over 30 µM in [2]; over 30 µM in [3]; 0.056 µM in assay [8]; 0.022 µM in [11].
Turning to `CC1CCCN(S(=O)(=O)c2ccc(N3CCCC3=O)cc2)C1` (stereo unspecified), the IC50 was over 30 µM in assay [1]; over 30 µM in assay [2]; over 30 µM in assay [3]; 0.084 µM in [8]; 0.015 µM in [11].
